Results taken from ChEMBL document CHEMBL4411307, “N,N'-diaryl-bishydrazones in a biphenyl platform: Broad spectrum antifungal agents” (Eur J Med Chem, 2019).
≈ marks a conversion by molar mass, not a printed value. Calls of active or inactive are those of the source. No cut-off for these calls is given here.

Assays:
Candida albicans [1] = assay: Antifungal activity against fluconazole/ITC-resistant Candida albicans ATCC 64124 measured after 48 hrs by CLSI M27-A3 protocol based method; format: functional; conditions: ATCC 64124, 48 h
A549 = assay: Cytotoxicity against human A549 cells after 24 hrs by resazurin based assay; format: cell-based; conditions: a549, 24 h
Candida albicans [2] = assay: Antifungal activity against fluconazole/ITC-resistant Candida albicans ATCC MYA-1237 measured after 48 hrs by CLSI M27-A3 protocol based method; format: functional; conditions: ATCC MYA-1237, 48 h
Staphylococcus aureus = assay: Antibacterial activity against methicillin-resistant Staphylococcus aureus; format: functional, organism-based
[3] = Selectivity index, ratio of compound concentration showing <20 to <30% hemolysis in mouse RBC to MIC for Aspergillus flavus ATCC MYA-3631; format: toxicity; conditions: mouse red blood cells (RBC), read-out: Selectivity Index
Aspergillus nidulans = assay: Antifungal activity against Aspergillus nidulans ATCC 38163 measured after 48 hrs by CLSI M38-A2 protocol based method; format: functional; conditions: ATCC 38163, 48 h
[4] = Selectivity index, ratio of compound concentration showing <20 to <30% hemolysis in mouse RBC to MIC for Candida glabrata ATCC 2001; format: toxicity; conditions: mouse red blood cells (RBC), read-out: Selectivity Index
[5] = Selectivity index, ratio of CC50 for human A549 cells to MIC for fluconazole/ITC-resistant Candida albicans ATCC MYA-1237; format: toxicity; conditions: read-out: Selectivity Index
[6] = Selectivity index, ratio of compound concentration showing <20 to <30% hemolysis in mouse RBC to MIC for Aspergillus terreus ATCC MYA-3633; format: toxicity; conditions: mouse red blood cells (RBC), read-out: Selectivity Index
[7] = Hemolytic activity in mouse RBC at 1.95 ug/ml after 1 hr relative to control; format: ADME, cell-based, Erythrocyte; conditions: red blood cells (erythrocytes), read-out: Activity
[8] = Selectivity index, ratio of compound concentration showing <20 to <30% hemolysis in mouse RBC to MIC for Candida krusei ATCC 6258; format: toxicity; conditions: mouse red blood cells (RBC), read-out: Selectivity Index
[9] = Selectivity index, ratio of CC50 for human A549 cells to MIC for fluconazole/ITC-susceptible Candida albicans ATCC MYA-2876; format: toxicity; conditions: read-out: Selectivity Index
[10] = Selectivity index, ratio of compound concentration showing <20 to <30% hemolysis in mouse RBC to MIC for fluconazole/ITC-susceptible Candida albicans ATCC MYA-2876; format: toxicity; conditions: red blood cells (erythrocytes), read-out: Selectivity Index
[11] = Selectivity index, ratio of compound concentration showing <20 to <30% hemolysis in mouse RBC to MIC for Candida parapsilosis ATCC 22019; format: toxicity; conditions: mouse red blood cells (RBC), read-out: Selectivity Index
[12] = Selectivity index, ratio of CC50 for human A549 cells to MIC for fluconazole/ITC-susceptible Candida albicans ATCC MYA-2310; format: toxicity; conditions: read-out: Selectivity Index
Candida albicans [13] = assay: Antifungal activity against fluconazole/ITC-susceptible Candida albicans ATCC MYA-2876 measured after 48 hrs by CLSI M27-A3 protocol based method; format: functional; conditions: ATCC MYA-2876, 48 h
[14] = Selectivity index, ratio of compound concentration showing <20 to <30% hemolysis in mouse RBC to MIC for fluconazole/ITC-resistant Candida albicans ATCC 90819; format: toxicity; conditions: red blood cells (erythrocytes), read-out: Selectivity Index
[15] = Hemolytic activity in mouse RBC at 7.8 ug/ml after 1 hr relative to control; format: ADME, cell-based, Erythrocyte; conditions: red blood cells (erythrocytes), read-out: Activity
Aspergillus terreus = assay: Antifungal activity against Aspergillus terreus ATCC MYA-3633 measured after 48 hrs by CLSI M38-A2 protocol based method; format: functional; conditions: ATCC MYA-3633, 48 h
Nakaseomyces glabratus = assay: Antifungal activity against Candida glabrata ATCC 2001 measured after 48 hrs by CLSI M27-A3 protocol based method; format: functional; conditions: CBS 138, 48 h
Candida albicans [16] = assay: Antifungal activity against fluconazole/ITC-resistant Candida albicans ATCC 90819 measured after 48 hrs by CLSI M27-A3 protocol based method; format: functional; conditions: ATCC 90819, 48 h
[17] = Selectivity index, ratio of CC50 for human A549 cells to MIC for fluconazole/ITC-resistant Candida albicans ATCC 90819; format: toxicity; conditions: read-out: Selectivity Index
[18] = Selectivity index, ratio of compound concentration showing <20 to <30% hemolysis in mouse RBC to MIC for fluconazole/ITC-resistant Candida albicans ATCC 10231; format: toxicity; conditions: red blood cells (erythrocytes), read-out: Selectivity Index
Candida albicans [19] = assay: Antifungal activity against fluconazole/ITC-resistant Candida albicans ATCC MYA-1003 measured after 48 hrs by CLSI M27-A3 protocol based method; format: functional; conditions: ATCC MYA-1003, 48 h
Pichia kudriavzevii = assay: Antifungal activity against Candida krusei ATCC 6258 measured after 48 hrs by CLSI M27-A3 protocol based method; format: functional; conditions: ATCC 6258, 48 h
Enterococcus = assay: Antibacterial activity against vancomycin-resistant Enterococcus; format: functional, organism-based
[20] = Selectivity index, ratio of CC50 for human A549 cells to MIC for fluconazole/ITC-resistant Candida albicans ATCC 10231; format: toxicity; conditions: read-out: Selectivity Index
[21] = Hemolytic activity in mouse RBC at […] after 1 hr relative to control; format: ADME, cell-based, Erythrocyte; conditions: red blood cells (erythrocytes), read-out: Activity; note: tested at 0.48 µg/mL
[22] = Selectivity index, ratio of CC50 for human A549 cells to MIC for Aspergillus terreus ATCC MYA-3633; format: toxicity; conditions: read-out: Selectivity Index
Candida albicans [23] = assay: Antifungal activity against fluconazole/ITC-resistant Candida albicans ATCC 10231 measured after 48 hrs by CLSI M27-A3 protocol based method; format: functional; conditions: ATCC 10231, 48 h
Candida albicans [24] = assay: Antifungal activity against fluconazole/ITC-susceptible Candida albicans ATCC MYA-2310 measured after 48 hrs by CLSI M27-A3 protocol based method; format: functional; conditions: ATCC MYA-2310, 48 h
[25] = Selectivity index, ratio of CC50 for human A549 cells to MIC for Aspergillus nidulans ATCC 38163; format: toxicity; conditions: read-out: Selectivity Index
[26] = Hemolytic activity in mouse RBC at 62.5 ug/ml after 1 hr relative to control; format: ADME, cell-based, Erythrocyte; conditions: red blood cells (erythrocytes), read-out: Activity
[27] = Selectivity index, ratio of CC50 for human A549 cells to MIC for fluconazole/ITC-resistant Candida albicans ATCC 64124; format: toxicity; conditions: read-out: Selectivity Index
Listeria monocytogenes = assay: Antibacterial activity against Listeria monocytogenes; format: functional, organism-based
[28] = Selectivity index, ratio of compound concentration showing <20 to <30% hemolysis in mouse RBC to MIC for Aspergillus nidulans ATCC 38163; format: toxicity; conditions: mouse red blood cells (RBC), read-out: Selectivity Index
Candida parapsilosis = assay: Antifungal activity against Candida parapsilosis ATCC 22019 measured after 48 hrs by CLSI M27-A3 protocol based method; format: functional; conditions: Lodderomyces parapsilosis, ATCC 22019, 48 h
[29] = Selectivity index, ratio of compound concentration showing <20 to <30% hemolysis in mouse RBC to MIC for fluconazole/ITC-resistant Candida albicans ATCC MYA-1237; format: toxicity; conditions: mouse red blood cells (RBC), read-out: Selectivity Index
BEAS-2B = assay: Cytotoxicity against human BEAS2B cells after 24 hrs by resazurin based assay; format: cell-based
[30] = Selectivity index, ratio of CC50 for human A549 cells to MIC for Candida glabrata ATCC 2001; format: toxicity; conditions: read-out: Selectivity Index
[31] = Selectivity index, ratio of compound concentration showing <20 to <30% hemolysis in mouse RBC to MIC for fluconazole/ITC-resistant Candida albicans ATCC 64124; format: toxicity; conditions: red blood cells (erythrocytes), read-out: Selectivity Index
[32] = Hemolytic activity in mouse RBC at 3.9 ug/ml after 1 hr relative to control; format: ADME, cell-based, Erythrocyte; conditions: red blood cells (erythrocytes), read-out: Activity
[33] = Selectivity index, ratio of CC50 for human A549 cells to MIC for fluconazole/ITC-resistant Candida albicans ATCC MYA-1003; format: toxicity; conditions: read-out: Selectivity Index
[34] = Selectivity index, ratio of CC50 for human A549 cells to MIC for Candida krusei ATCC 6258; format: toxicity; conditions: read-out: Selectivity Index
[35] = Hemolytic activity in mouse RBC at 31.3 ug/ml after 1 hr relative to control; format: ADME, cell-based, Erythrocyte; conditions: red blood cells (erythrocytes), read-out: Activity
[36] = Selectivity index, ratio of compound concentration showing <20 to <30% hemolysis in mouse RBC to MIC for fluconazole/ITC-susceptible Candida albicans ATCC MYA-2310; format: toxicity; conditions: mouse red blood cells (RBC), read-out: Selectivity Index
Aspergillus flavus = assay: Antifungal activity against Aspergillus flavus ATCC MYA-3631 measured after 48 hrs by CLSI M38-A2 protocol based method; format: functional; conditions: ATCC MYA-3631, 48 h
[37] = Hemolytic activity in mouse RBC at […] ug/ml after 1 hr relative to control; format: ADME, cell-based, Erythrocyte; conditions: red blood cells (erythrocytes), read-out: Activity
[38] = Selectivity index, ratio of CC50 for human A549 cells to MIC for Candida parapsilosis ATCC 22019; format: toxicity; conditions: read-out: Selectivity Index
[39] = Selectivity index, ratio of compound concentration showing <20 to <30% hemolysis in mouse RBC to MIC for fluconazole/ITC-resistant Candida albicans ATCC MYA-1003; format: toxicity; conditions: mouse red blood cells (RBC), read-out: Selectivity Index

Fc1ccc(N/N=C/c2ccc(-c3ccc(/C=N/Nc4ccc(F)cc4)cc3)cc2)cc1
MIC (Candida albicans [1]): 15.6 µg/mL (≈ 36.6 µM)
CC50 (A549): 17.7 µg/mL (≈ 41.5 µM)
MIC (Candida albicans [2]): 7.8 µg/mL (≈ 18.3 µM)
Activity (Staphylococcus aureus): inactive
selectivity ratio [3]: 1 to 32
MIC (Aspergillus nidulans): 7.8 µg/mL (≈ 18.3 µM)
selectivity ratio [4]: 1 to 32
selectivity ratio [5]: 2.3
selectivity ratio [6]: 1 to 32
hemolysis at 1 h, 1.95 ug/ml [7]: 1.1%
selectivity ratio [8]: 1 to 32
selectivity ratio [9]: 2.3
selectivity ratio [10]: 1 to 32
selectivity ratio [11]: 1 to 32
selectivity ratio [12]: 1.1
MIC (Candida albicans [13]): 7.8 µg/mL (≈ 18.3 µM)
selectivity ratio [14]: 1 to 32
hemolysis at 1 h, 7.8 ug/ml [15]: 3.2%
MIC (Aspergillus terreus): > 31.3 µg/mL
MIC (Nakaseomyces glabratus): 15.6 µg/mL (≈ 36.6 µM)
MIC (Candida albicans [16]): 31.3 µg/mL (≈ 73.4 µM)
selectivity ratio [17]: 0.6
selectivity ratio [18]: 1 to 32
MIC (Candida albicans [19]): 7.8 µg/mL (≈ 18.3 µM)
MIC (Pichia kudriavzevii): 1.95 µg/mL (≈ 4.57 µM)
Activity (Enterococcus): inactive
selectivity ratio [20]: 2.3
hemolysis at 1 h, […] [21]: 0%
selectivity ratio [22]: 0.6
MIC (Candida albicans [23]): 7.8 µg/mL (≈ 18.3 µM)
MIC (Candida albicans [24]): 15.6 µg/mL (≈ 36.6 µM)
selectivity ratio [25]: 2.3
hemolysis at 1 h, 62.5 ug/ml [26]: 28.3%
selectivity ratio [27]: 1.1
Activity (Listeria monocytogenes): inactive
selectivity ratio [28]: 1 to 32
MIC (Candida parapsilosis): 31.3 µg/mL (≈ 73.4 µM)
selectivity ratio [29]: 1 to 32
CC50 (BEAS-2B): 8.5 µg/mL (≈ 19.9 µM)
selectivity ratio [30]: 1.1
selectivity ratio [31]: 1 to 32
hemolysis at 1 h, 3.9 ug/ml [32]: 0.7%
selectivity ratio [33]: 2.3
selectivity ratio [34]: 9.1
hemolysis at 1 h, 31.3 ug/ml [35]: 9.6%
selectivity ratio [36]: 1 to 32
MIC (Aspergillus flavus): 7.8 µg/mL (≈ 18.3 µM)
hemolysis at 1 h, 15.6 ug/ml ([37]; at 15.6 µg/mL): 9%
hemolysis at 1 h, 0.975 ug/ml [37]: 0%
selectivity ratio [38]: 0.6
selectivity ratio [39]: 1 to 32
